From ChEMBL document CHEMBL1201862, “PubChem BioAssay data set” (2004)
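Compound exposure: 48 hours, 5 concentrations, 96-well plates. The concentration for 50% growth inhibition is given as GI50.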 The source made the active and inactive calls. No stated cut-off is given here; in the data, active = GI50 up to about 1.1 µM and inactive = higher.

Assays:
Experiment in all cases: DTP human tumour cell line panel, 48 h
BT-549 = system: BT-549
MDA-MB-231 = system: MDA-MB-231
UACC-62 = system: UACC-62
RPMI-8226 = system: RPMI-8226
SNB-75 = system: SNB-75
A498 = system: A498
786-0 = system: 786-0
MOLT-4 = system: MOLT-4
SW-620 = system: SW-620
HCT-116 = system: HCT-116
CAKI-1 = system: CAKI-1
UO-31 = system: UO-31
SN12C = system: SN12C
HOP-62 = system: HOP-62
SNB-19 = system: SNB-19
NCI-H23 = system: NCI-H23
HOP-92 = system: HOP-92
Hs-578T = system: Hs-578T
NCI-H226 = system: NCI-H226
NCI-H522 = system: NCI-H522

| Structure (SMILES) | GI50 (BT-549) | GI50 (MDA-MB-231) | GI50 (UACC-62) | GI50 (RPMI-8226) | GI50 (SNB-75) | GI50 (A498) | GI50 (786-0) | GI50 (MOLT-4) | GI50 (SW-620) | GI50 (HCT-116) | GI50 (CAKI-1) | GI50 (UO-31) | GI50 (SN12C) | GI50 (HOP-62) | GI50 (SNB-19) | GI50 (NCI-H23) | GI50 (HOP-92) | GI50 (Hs-578T) | GI50 (NCI-H226) | GI50 (NCI-H522) |
| --- | --- | --- | --- | --- | --- | --- | --- | --- | --- | --- | --- | --- | --- | --- | --- | --- | --- | --- | --- | --- |
| O=C(/C=C/c1ccccc1)Oc1ccc(C(=O)/C=C/c2ccc(Cl)cc2)cc1 | 25.8 µM (inactive) | > 100 µM (inactive) | > 100 µM (inactive) | 43.3 µM (inactive) | 75.3 µM (inactive) | > 100 µM (inactive) | 31.9 µM (inactive) | > 100 µM (inactive) | > 100 µM (inactive) | 83.4 µM (inactive) | > 100 µM (inactive) | 63.8 µM (inactive) | > 100 µM (inactive) | > 100 µM (inactive) | 46.1 µM (inactive) |  |  |  |  |  |
| CCOC(=O)N1CCC2C(=C(C)C(C)C3=C2C(=O)c2ccccc2C3=O)C1 (stereo unspecified) |  | 4.07 µM (inactive) | 4.41 µM (inactive) | 3.79 µM (inactive) | 3.75 µM (inactive) |  | 4.61 µM (inactive) | 4.6 µM (inactive) | 3.61 µM (inactive) |  | 4.73 µM (inactive) |  | 3.86 µM (inactive) | 4.1 µM (inactive) |  | 2.76 µM (inactive) | 5.41 µM (inactive) |  |  |  |
| CN(C)c1ccc(-c2[nH]c(=O)c3ccccc3[n+]2C)cc1 |  | > 100 µM (inactive) | 47.5 µM (inactive) | 63.2 µM (inactive) | > 100 µM (inactive) | 99.1 µM (inactive) | > 100 µM (inactive) | 51.9 µM (inactive) | > 100 µM (inactive) | 93.8 µM (inactive) |  | 39.4 µM (inactive) | > 100 µM (inactive) | > 100 µM (inactive) | > 100 µM (inactive) | 60 µM (inactive) | 60.7 µM (inactive) | > 100 µM (inactive) | 40.6 µM (inactive) |  |
| CC1=NN(c2cccc(Cl)c2)C2(C1=Cc1ccccc1)C(Cl)C(=O)N2c1nc2ccccc2s1 (stereo unspecified) |  | 18.4 µM (inactive) |  | 21.9 µM (inactive) |  | 18.2 µM (inactive) | 17.5 µM (inactive) | 23.5 µM (inactive) | 19.8 µM (inactive) | 16.7 µM (inactive) | 17.7 µM (inactive) | 16.3 µM (inactive) |  | 20.3 µM (inactive) |  | 14.5 µM (inactive) | 9.14 µM (inactive) | 23.2 µM (inactive) | 23.8 µM (inactive) | 16.8 µM (inactive) |
| Cc1[nH]n(-c2nc3c(c(=O)[nH]2)CCC3)c(=O)c1CCO |  | > 100 µM (inactive) | > 100 µM (inactive) | > 100 µM (inactive) | 0.0195 µM (active) | > 100 µM (inactive) | > 100 µM (inactive) | > 100 µM (inactive) | > 100 µM (inactive) | > 100 µM (inactive) | > 100 µM (inactive) | > 100 µM (inactive) | > 100 µM (inactive) | > 100 µM (inactive) | > 100 µM (inactive) | > 100 µM (inactive) |  | > 100 µM (inactive) | > 100 µM (inactive) | > 100 µM (inactive) |
| CCOC(=O)CCCSCCCC(=O)CCCSCCCC(=O)OCC | > 100 µM (inactive) | > 100 µM (inactive) | > 100 µM (inactive) |  | > 100 µM (inactive) |  | > 100 µM (inactive) | > 100 µM (inactive) | > 100 µM (inactive) | > 100 µM (inactive) |  | > 100 µM (inactive) | > 100 µM (inactive) | > 100 µM (inactive) | > 100 µM (inactive) | > 100 µM (inactive) | > 100 µM (inactive) |  |  | > 100 µM (inactive) |
| CCOC(=O)CCC(NC(=O)c1ccc(Oc2nc3ccc(C(F)(F)F)cc3nc2-c2ccccc2)cc1)C(=O)OCC (stereo unspecified) |  | 8.13 µM (inactive) | 23.1 µM (inactive) | > 100 µM (inactive) | 9.46 µM (inactive) | 16.4 µM (inactive) | 4.25 µM (inactive) | > 100 µM (inactive) | > 100 µM (inactive) | 25.6 µM (inactive) | 7.19 µM (inactive) | 20.6 µM (inactive) | > 50.7 µM (inactive) | 4.82 µM (inactive) | 12.7 µM (inactive) | 16.8 µM (inactive) | 18.9 µM (inactive) | 3.33 µM (inactive) | 4.32 µM (inactive) | 9.57 µM (inactive) |
